In ChEMBL document CHEMBL5033999, “Eriodictyol-Amplified 67-kDa Laminin Receptor Signaling Potentiates the Antiallergic Effect of O-Methylated Catechin” (J Nat Prod, 2021):
Calls of active or inactive are those of the source. No cut-off for these calls is given here.

Legend:
RBL-2H3 [1] = experiment: Inhibition of DNP-HAS-stimulated mast cell degranulation in rat RBL-2H3 cells assessed as reduction in beta-hexosaminidase release at 0.01 to 1 uM; assay type: functional, cell-based; details: dose 0.01-1 µM
RBL-2H3 [2] = experiment: Inhibition of DNP-HAS-stimulated mast cell degranulation in rat RBL-2H3 cells assessed as induction of ASM activation at 0.1 uM; assay type: functional, cell-based
RBL-2H3 [3] = experiment: Inhibition of DNP-HAS-stimulated mast cell degranulation in rat RBL-2H3 cells assessed as reduction in beta-hexosaminidase release at 0.1 uM; assay type: functional, cell-based
RBL-2H3 [4] = experiment: Inhibition of DNP-HAS-stimulated mast cell degranulation in rat RBL-2H3 cells assessed as reduction in beta-hexosaminidase release at 1 uM incubated for 3 hrs; assay type: functional, cell-based
Mus musculus = experiment: Inhibition of IgE/Ag-mediated immediate hypersensitivity reaction in BALB/c mouse assessed as change in the level of skin extravasation at 0 to 4 mg/kg, po administered 1 hr prior to Ag challenge; assay type: functional, organism-based; details: dose 0-4 mg/kg
RBL-2H3 [5] = experiment: Inhibition of DNP-HAS-stimulated mast cell degranulation in rat RBL-2H3 cells assessed as reduction in beta-hexosaminidase release at 0.5 uM; assay type: functional, cell-based
RBL-2H3 [6] = experiment: Inhibition of DNP-HAS-stimulated mast cell degranulation in rat RBL-2H3 cells assessed as induction of ASM activation at 0.5 uM in presence of 0.1 uM eriodictyol; assay type: functional, cell-based
RBL-2H3 [7] = experiment: Inhibition of DNP-HAS-stimulated mast cell degranulation in rat RBL-2H3 cells assessed as reduction in beta-hexosaminidase release pre-treated with 5 uM sGC inhibitor NS2028 for 1 hr followed by compound treatment at 25 uM for 3 hrs; assay type: functional, cell-based
RBL-2H3 [8] = experiment: Inhibition of DNP-HAS-stimulated mast cell degranulation in rat RBL-2H3 cells assessed as reduction in beta-hexosaminidase release at 1 to 25 uM incubated for 3 hrs followed by DNP-HAS stimulation for 1 hr; assay type: functional, cell-based; details: dose 1-25 µM
RBL-2H3 [9] = experiment: Inhibition of mast cell degranulation in rat RBL-2H3 cells assessed as induction of ASM activation pre-treated with anti-67LR antibody for 3 hrs followed by compound treatment at 25 uM for 3 hrs; assay type: functional, cell-based
RBL-2H3 [10] = experiment: Inhibition of mast cell degranulation in rat RBL-2H3 cells assessed as reduction in beta-hexosaminidase release pre-treated with 5 uM ASM-specific inhibitor desipramine for 3 hrs followed by compound treatment at 25 uM for 3 hrs; assay type: functional, cell-based
RBL-2H3 [11] = experiment: Inhibition of DNP-HAS-stimulated mast cell degranulation in rat RBL-2H3 cells assessed as reduction in beta-hexosaminidase release at 0.5 uM in presence of 0.1 uM eriodictyol; assay type: functional, cell-based
RBL-2H3 [12] = experiment: Inhibition of DNP-HAS-stimulated mast cell degranulation in rat RBL-2H3 cells assessed as induction of ASM activation at 0.5 uM; assay type: functional, cell-based
RBL-2H3 [13] = experiment: Inhibition of mast cell degranulation in rat RBL-2H3 cells assessed as induction of ASM activation at 1 to 25 uM incubated for 3 hrs measured by TLC analyses; assay type: functional, cell-based; details: dose 1-25 µM

O=C1C[C@@H](c2ccc(O)c(O)c2)Oc2cc(O)cc(O)c21
inhibition (RBL-2H3 [1]): inactive
inhibition (RBL-2H3 [2]): inactive
inhibition (RBL-2H3 [3]): inactive

Nc1nc(-c2nn(Cc3ccccc3F)c3ncccc23)ncc1C1CC1
inhibition (RBL-2H3 [4]): Active

O=C1C[C@@H](c2ccc(O)c(O)c2)Oc2cc(O[C@@H]3O[C@H](CO)[C@@H](O)[C@H](O)[C@H]3O)cc(O)c21
inhibition (Mus musculus): inactive

COc1cc(C(=O)O[C@@H]2Cc3c(O)cc(O)cc3O[C@@H]2c2cc(O)c(O)c(O)c2)cc(O)c1O
inhibition (RBL-2H3 [5]): inactive
inhibition (RBL-2H3 [6]): Active
inhibition (RBL-2H3 [7]): inactive
inhibition (RBL-2H3 [8]): Active
inhibition (RBL-2H3 [9]): inactive
inhibition (RBL-2H3 [10]): inactive
inhibition (RBL-2H3 [11]): Active
inhibition (RBL-2H3 [12]): inactive
inhibition (RBL-2H3 [13]): Active
